According to ChEMBL document CHEMBL1124870, “2-(4-Amino-4-carboxybutyl)aziridine-2-carboxylic acid. A potent irreversible inhibitor of diaminopimelic acid epimerase. Spontaneous formation from alpha-(halomethyl)diaminopimelic acids” (J Med Chem, 1990):

Tests used:
[1] = Dissociation constant value of the compound; type: physicochemical; settings: read-out: Ki/ki
Escherichia coli = assay: Concentration at which first-order inactivation was observed by the inhibition of Diaminopimelate epimerase
[2] = Rate of formation of aziridine under physiological conditions; type: ADME

k0 [2]	kik0/Ki [2]	SMILES	Kd [1]	Concentration (Escherichia coli)
		NC(CCCC1(C(=O)O)CN1)C(=O)O (stereo unspecified)	5.5 µM	2 µM
0.000079 min⁻¹	0.0000145 uM-1 min**-2	NC(CCCC(N)(CF)C(=O)O)C(=O)O (stereo unspecified)		
0.011 min⁻¹	0.002 µM-1 min··-2	NC(CCCC(N)(CCl)C(=O)O)C(=O)O (stereo unspecified)		
